Active and inactive are the calls of the source.
Key:
[1] = NIH-3T3 fibroblast cytotoxicity, dose response, cytotoxicity control, cell-based, fluorescence, Alamar Blue, secondary assay (AID 2327); type: functional;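 also: NIH-3T3 mouse fibroblasts cultured with fluconazole at 8 µg/mL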
[2] = HepG2 cell cytotoxicity, dose response, cytotoxicity control, ATP luminescence, cherry-pick, activator set 2 (AID 1053143); type: functional, cell-based
INS1 = test: beta cell apoptosis inhibitors, cytokine rescue, dose response, luminescence, retest (AID 449756); type: functional, cell-based; conditions: Rattus norvegicus;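 also: cell death triggered by IL-1 beta plus TNF-alpha plus IFN-gamma mixture; protective hits raise ATP signal compared with cytokine alone wells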
[3] = C. albicans growth with fluconazole, confirmation, fluorescence, retest (AID 2467); type: functional, cell-based
Aminopeptidase N = target: T1, Aminopeptidase N (Plasmodium falciparum FcB1/Columbia, UniProt O96935); test: P. falciparum M1AAP inhibitors, biochemical, fluorogenic H-Leu-NHMec substrate, 1536-well (AID 1445); set-up: species or system Plasmodium falciparum 3D7, 3D7
T1 sequence (O96935 whole entry): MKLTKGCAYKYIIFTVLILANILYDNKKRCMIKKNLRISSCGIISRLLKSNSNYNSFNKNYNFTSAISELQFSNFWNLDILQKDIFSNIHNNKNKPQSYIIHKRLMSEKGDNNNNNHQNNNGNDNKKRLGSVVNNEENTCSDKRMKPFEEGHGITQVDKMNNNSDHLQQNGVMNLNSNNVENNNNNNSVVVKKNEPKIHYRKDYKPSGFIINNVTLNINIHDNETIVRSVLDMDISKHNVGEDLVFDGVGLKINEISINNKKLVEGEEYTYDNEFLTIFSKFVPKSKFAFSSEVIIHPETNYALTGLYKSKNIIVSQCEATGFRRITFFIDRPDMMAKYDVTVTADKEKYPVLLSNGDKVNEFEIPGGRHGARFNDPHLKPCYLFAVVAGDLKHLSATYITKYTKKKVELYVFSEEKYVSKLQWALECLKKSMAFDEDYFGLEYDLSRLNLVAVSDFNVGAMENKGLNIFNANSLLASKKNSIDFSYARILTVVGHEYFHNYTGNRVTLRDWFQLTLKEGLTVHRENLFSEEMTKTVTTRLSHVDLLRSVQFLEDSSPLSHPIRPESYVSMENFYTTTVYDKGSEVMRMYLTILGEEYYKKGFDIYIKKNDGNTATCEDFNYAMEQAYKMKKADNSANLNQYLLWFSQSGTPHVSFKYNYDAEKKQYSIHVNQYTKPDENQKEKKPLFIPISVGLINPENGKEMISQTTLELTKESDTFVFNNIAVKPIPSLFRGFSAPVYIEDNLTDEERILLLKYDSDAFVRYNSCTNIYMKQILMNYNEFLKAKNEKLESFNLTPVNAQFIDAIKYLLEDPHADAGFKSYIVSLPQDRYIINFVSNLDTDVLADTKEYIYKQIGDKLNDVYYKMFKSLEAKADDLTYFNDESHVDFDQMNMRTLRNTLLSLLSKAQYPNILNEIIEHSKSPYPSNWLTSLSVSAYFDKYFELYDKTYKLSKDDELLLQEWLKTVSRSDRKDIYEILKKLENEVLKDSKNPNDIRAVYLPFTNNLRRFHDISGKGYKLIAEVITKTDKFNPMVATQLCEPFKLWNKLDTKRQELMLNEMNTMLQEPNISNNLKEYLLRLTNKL

HEK293 [4] = test: cells; type: functional, cell-based; conditions: Homo sapiens
Streptokinase A = target: T2, Streptokinase A (Streptococcus pyogenes serotype M1, UniProt P10520); test: S. pyogenes streptokinase expression inhibitors, potency, dose response, plasminogen activation absorbance, OD405 (AID 1914); type: functional, Streptococcus pyogenes M1 GAS;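 also: secreted streptokinase activity via plasminogen activation per viability signal from cell pellet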
T2 sequence (P10520 whole entry): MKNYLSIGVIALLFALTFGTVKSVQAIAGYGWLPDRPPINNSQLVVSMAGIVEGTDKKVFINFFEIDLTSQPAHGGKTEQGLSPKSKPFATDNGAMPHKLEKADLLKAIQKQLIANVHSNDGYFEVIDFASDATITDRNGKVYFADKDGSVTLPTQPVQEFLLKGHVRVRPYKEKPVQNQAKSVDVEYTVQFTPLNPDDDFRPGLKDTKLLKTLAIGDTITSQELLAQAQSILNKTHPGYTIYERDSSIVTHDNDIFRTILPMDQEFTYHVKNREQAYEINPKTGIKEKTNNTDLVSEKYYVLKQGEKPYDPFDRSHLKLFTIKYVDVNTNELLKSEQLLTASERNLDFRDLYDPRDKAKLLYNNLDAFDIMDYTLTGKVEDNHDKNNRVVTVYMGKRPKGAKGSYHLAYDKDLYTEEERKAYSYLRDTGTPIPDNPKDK

[5] = inhibitors of HIV Env-driven cell fusion, dose response, cherry-pick (AID 652057); type: functional, cell-based
Streptococcus = test: Group A Streptococcus viability loss, dose response, counter-screen for streptokinase expression inhibitor project, luminescence, BacTiterGlo (AID 1915); type: functional, organism-based;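 also: potency for reduction of bacterial viability or growth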
[6] = inhibitors of clade B AD8 Env fusion, dose response, cell-based, cherry-pick (AID 652062); type: functional;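 also: luciferase signal from cell-cell fusion driven by HIV-1 clade B AD8 Env; potency is for inhibitors of fusion seen as a drop in luminescence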
[7] = ZM109 Env clade C HIV-1 fusion inhibitors, dose response, HeLa effector, CEM target cells, luciferase, cherry-pick (AID 652058); type: functional, cell-based
[8] = HEK293T cytotoxicity, dose response, cytotoxicity control for miR-122 modulator project, cell-based, activator set, cherry-pick (AID 720690); type: functional;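 also: HEK293T human cells scored for general mammalian cytotoxicity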
[9] = miR-122 activators in hepatoma reporter cells, dose response, cell-based, Huh7 psiCHECK-miR122, Renilla luciferase, cherry-picked (AID 651956); type: functional;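 also: huh7 hepatoma cells stably carrying a psiCHECK-2 miR-122 sensor plasmid; renilla luciferase signal reporting endogenous miR-122 activity after 48 h compound exposure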
[10] = off-target signal loss in HeLa-CEM21 co-culture – HeLa F-luc CTL cells, cherry-picked, counter-screen for HIV-1 Env fusion inhibitor project, dose response (AID 652040); type: functional, cell-based;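 also: potency for signal decrease marking cytotoxic or nonspecific inhibition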
HEK293 [11] = test: NOD2 signaling inhibitors in MDP-stimulated cells, cell-based, uHTS, luminescence (AID 2001); type: functional; conditions: Homo sapiens
[12] = HEK293T cytotoxicity, dose response, cytotoxicity control for miR-122 modulator project, cell-based, inhibitor set, cherry-pick, set 2 (AID 720697); type: functional
HEK293 [13] = test: NOD1 signaling inhibitors, primary screen, cell-based, luminescence, uHTS (AID 1578); type: functional; conditions: Homo sapiens
[14] = system: Streptococcus sp. 'group A'; test: growth inhibition of control SK(-) GAS strain, dose response, counter-screen for streptokinase expression inhibitor project, luminescence, kanamycin, BacTiterGlo, confirmation (AID 1900); type: functional, organism-based; conditions: read-out: EC50
HEK293 [15] = test: cells; type: functional, cell-based; conditions: Homo sapiens; remark: listed apart in the source
[16] = CEM21 lymphoblast cell cytotoxicity, dose response, cytotoxicity control for viral fusion inhibitor project, CellTiter-Glo luminescence, cherry-picked (AID 652042); type: functional, cell-based;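 also: potency for signal decrease meaning cytotoxicity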
[17] = Shn3 3'UTR reporter inhibitors, dose response, cell-based, Clone20 osteoblasts, firefly luciferase, cherry-picked (AID 624132); type: functional;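 also: firefly luciferase luminescence from reporter carrying the Shn3 3'UTR in osteoblasts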
[18] = target: T3, Heat shock factor protein 1 (Mus musculus, UniProt P38532); test: inhibition of MG132-induced HSE-luciferase signal, confirmation, cell-based, NIH3T3, luminescence, dose retest (AID 2382); type: functional;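 also: NIH3T3 fibroblasts with HSF1-driven luciferase reporter stressed by proteasome inhibitor MG132; luminescence from HSF1-driven luciferase expression after 8 hours of MG132 stress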
T3 sequence (P38532 whole entry): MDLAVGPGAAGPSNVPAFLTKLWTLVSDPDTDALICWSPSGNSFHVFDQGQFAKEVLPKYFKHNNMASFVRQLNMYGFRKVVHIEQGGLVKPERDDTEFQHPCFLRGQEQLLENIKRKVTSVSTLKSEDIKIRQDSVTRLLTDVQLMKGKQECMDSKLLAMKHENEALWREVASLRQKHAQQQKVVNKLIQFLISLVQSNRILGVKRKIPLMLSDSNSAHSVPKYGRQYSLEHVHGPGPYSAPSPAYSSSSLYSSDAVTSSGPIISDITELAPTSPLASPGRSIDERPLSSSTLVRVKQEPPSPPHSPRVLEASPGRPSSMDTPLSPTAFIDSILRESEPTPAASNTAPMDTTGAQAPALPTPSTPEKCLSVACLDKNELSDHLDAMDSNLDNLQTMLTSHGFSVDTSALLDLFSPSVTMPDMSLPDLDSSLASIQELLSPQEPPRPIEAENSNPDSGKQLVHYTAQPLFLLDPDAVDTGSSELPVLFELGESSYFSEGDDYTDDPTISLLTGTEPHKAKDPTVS

[19] = A549 cell cytotoxicity, dose response, cytotoxicity control, plate reader, cherry-pick, antagonist series (AID 743412); type: functional, cell-based
[20] = Luminescence Cell-Based Dose Retest to Confirm Inhibitors of Cancer Stem Cells. [Related pubchem assays (depositor defined):AID2717, AID2721]; type: functional, Homo sapiens; conditions: Homo sapiens
[21] = non-specific cell cytotoxicity, dose response, cytotoxicity control for PAX8 inhibitor project, plate reader, dry powder samples (AID 743021); type: functional, cell-based
[22] = HepG2 cell cytotoxicity, dose response, cytotoxicity control for Shn3 inhibitor project, CellTiter-Glo, cherry-picked (AID 624134); type: functional, cell-based
[23] = LGR2 antagonists, dose response, cell-based, HEK293, CRE-luciferase reporter, cherry pick, set 2 (AID 743343); type: functional;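 also: transfected cells were stimulated with diluted bursicon conditioned medium after compound addition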
Paired box protein Pax-8 = Paired box protein Pax-8 (Homo sapiens, UniProt Q06710); test: inhibitors of PAX8-driven TPO luciferase reporter, dose response, RMG-I cells, cherry-pick (AID 687027); type: functional, cell-based;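 also: luciferase reporter driven by Pax8 target thyroperoxidase promoter measured by SteadyGlo luminescence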
Paired box protein Pax-8, sequence (Q06710 whole entry): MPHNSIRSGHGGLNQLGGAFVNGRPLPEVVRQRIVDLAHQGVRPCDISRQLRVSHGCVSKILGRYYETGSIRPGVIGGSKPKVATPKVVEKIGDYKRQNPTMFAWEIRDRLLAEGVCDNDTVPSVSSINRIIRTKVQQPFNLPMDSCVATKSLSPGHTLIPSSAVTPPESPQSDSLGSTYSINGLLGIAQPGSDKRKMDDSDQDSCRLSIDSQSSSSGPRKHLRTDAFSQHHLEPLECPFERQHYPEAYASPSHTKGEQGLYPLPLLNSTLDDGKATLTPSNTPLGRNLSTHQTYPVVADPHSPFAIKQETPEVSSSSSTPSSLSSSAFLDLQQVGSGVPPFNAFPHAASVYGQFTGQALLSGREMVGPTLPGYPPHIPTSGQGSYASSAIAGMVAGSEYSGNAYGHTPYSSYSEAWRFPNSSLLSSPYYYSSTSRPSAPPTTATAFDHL

[24] = HEK293 cell cytotoxicity, dose response, cytotoxicity control, plate reader, cherry-picked samples (AID 743446); type: functional, cell-based
[25] = MC4R antagonists, dose response, counter-screen for LGR2 antagonist project, cell-based, plate reader, cherry pick (AID 743444); type: functional;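 also: transfected HEK 293 cells stimulated with alpha-MSH peptide; potency of inhibitors of the alpha-MSH evoked signal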
[26] = HepG2 cell cytotoxicity, dose response, cytotoxicity control, plate reader, cherry-pick, antagonist series (AID 743416); type: functional, cell-based
[27] = control 3'UTR Renilla luciferase suppression, dose response, counter-screen for Shn3 inhibitor project, cell-based, Clone20-Shn3RL, cherry-picked (AID 624133); type: functional
[28] = target: T4, Microphthalmia-associated transcription factor (Homo sapiens, UniProt O75030); test: TRPM1 promoter luciferase signal decrease, dose response, MITF inhibitor project, cell-based, SK-MEL-5, cherry-picked, set 3 (AID 493073); type: functional
T4 sequence (O75030 whole entry): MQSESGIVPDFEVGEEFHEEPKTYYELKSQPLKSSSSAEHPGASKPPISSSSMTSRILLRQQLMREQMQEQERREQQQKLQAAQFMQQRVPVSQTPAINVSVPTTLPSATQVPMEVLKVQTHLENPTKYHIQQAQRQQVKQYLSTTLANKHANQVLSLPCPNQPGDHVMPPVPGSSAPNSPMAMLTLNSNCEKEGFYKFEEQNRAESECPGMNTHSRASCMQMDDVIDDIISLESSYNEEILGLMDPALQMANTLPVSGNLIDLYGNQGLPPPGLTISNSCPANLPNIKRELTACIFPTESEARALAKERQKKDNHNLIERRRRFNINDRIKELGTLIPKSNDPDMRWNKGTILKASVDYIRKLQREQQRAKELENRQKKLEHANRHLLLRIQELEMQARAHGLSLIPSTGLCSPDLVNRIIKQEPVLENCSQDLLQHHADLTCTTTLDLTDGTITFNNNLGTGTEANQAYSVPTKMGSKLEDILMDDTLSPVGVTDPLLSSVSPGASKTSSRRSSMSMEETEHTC

Albumin = Albumin (Bos taurus, UniProt P02769); test: Counterscreen for inhibitors of T-cell receptor (TCR)-CD3 interaction: Fluorescence-based biochemical high throughput dose response assay to identify inhibitors of T-cell receptor (TCR)-CD3 interaction using a TAMRA-labeled BSA probe.; type: functional
Albumin, sequence (P02769 whole entry): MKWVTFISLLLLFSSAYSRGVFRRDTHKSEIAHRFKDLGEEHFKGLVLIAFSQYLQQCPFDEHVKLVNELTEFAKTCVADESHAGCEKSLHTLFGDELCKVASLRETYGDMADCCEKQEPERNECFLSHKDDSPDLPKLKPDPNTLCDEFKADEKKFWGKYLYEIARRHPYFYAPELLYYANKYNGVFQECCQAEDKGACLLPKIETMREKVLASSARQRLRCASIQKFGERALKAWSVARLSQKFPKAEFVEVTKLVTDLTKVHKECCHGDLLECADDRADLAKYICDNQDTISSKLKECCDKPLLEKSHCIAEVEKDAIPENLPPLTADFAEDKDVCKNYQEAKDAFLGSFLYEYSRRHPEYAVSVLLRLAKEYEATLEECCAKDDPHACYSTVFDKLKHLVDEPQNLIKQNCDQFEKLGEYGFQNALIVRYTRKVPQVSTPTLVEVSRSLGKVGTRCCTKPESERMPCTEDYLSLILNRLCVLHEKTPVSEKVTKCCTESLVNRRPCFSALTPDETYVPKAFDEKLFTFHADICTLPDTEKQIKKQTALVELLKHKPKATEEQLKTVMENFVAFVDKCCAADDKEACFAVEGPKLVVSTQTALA

Structure (SMILES): O=C(Oc1c(CN2CCOCC2)cc(Cl)c2cccnc12)c1cccs1
- EC50 [1]: > 160 µM (inactive)
- AC50 [2]: 26 µM (active)
- AC50 (INS1): 4.67 µM (active)
- EC50 [3]: 2.63 µM (active)
- IC50 (Aminopeptidase N): 72.3 µM (active)

Structure (SMILES): O=C(Nc1ccc(OC(F)F)cc1)Nc1cccc(C(F)(F)F)c1
- IC50 (HEK293 [4]): 6.17 µM (active)
- EC50 (Streptokinase A): > 150 µM (not active)
- AC50 [5]: 5.03 µM (active)
- EC50 (Streptococcus): 44.9 µM (active)
- AC50 (INS1): 6.07 µM (active)
- AC50 [6]: 11 µM (active)
- AC50 [7]: 5.35 µM (active)
- AC50 [8]: 6.99 µM (active)
- AC50 [9]: 32 µM (active)
- AC50 [10]: 10.5 µM (active)
- IC50 (HEK293 [11]): 4.14 µM (inactive)
- AC50 [12]: 10.9 µM (active)
- EC50 (HEK293 [13]): 8.15 µM (active)
- EC50 [14]: 13.3 µM (active)
- IC50 (HEK293 [15]): 3.04 µM (active)
- AC50 [16]: 16.1 µM (active)

Structure (SMILES): O=C(Nc1ccc2nc3n(c(=O)c2c1)CCCCC3)c1cc([N+](=O)[O-])ccc1F
- AC50 [17]: 14.1 µM (active)
- EC50 [18]: > 195 µM (not active)
- AC50 [19]: 17.5 µM (active)
- AC50 [20]: 5.51 µM (active)
- AC50 [21]: 42.6 µM (active)
- AC50 [22]: 42.2 µM (active)
- AC50 [23]: 6.52 µM (active)
- AC50 (Paired box protein Pax-8): 14.3 µM (active)
- AC50 [24]: 14.7 µM (active)
- AC50 [25]: 11.5 µM (active)
- AC50 [26]: 18.3 µM (active)
- AC50 [27]: 9.99 µM (active)
- AC50 [28]: 10.7 µM (active)

Structure (SMILES): O=C(NNC(=S)NC(=O)c1cccnc1)c1ccc(F)cc1
- IC50 (Albumin): > 94.1 µM (inactive)
